Columns and labels:
CD11b = CD11b immunoreactivity in hippocampal CA1 area (immunostaining, immunoblotting); format: in vivo, rat
Protocol: (§1) Animals were divided into several groups ([…]). The Aβ1-40 group received bilateral intracerebral microinjection of Aβ1-40 fibrils once and saline intraperitoneally (i.p.) daily for 14 days. The Aβ1-40+MDA7 group received bilateral intracerebral microinjection of Aβ1-40 fibrils once and 15 mg/kg MDA7 i.p. daily for 14 days. Other cohorts received smaller doses of MDA7 (5 mg/kg or 1.5 mg/kg) i.p. daily for 14 days to determine the dose-response characteristics for MDA7. In other groups, AM630 (a CB2 antagonist) 5 mg/kg i.p. was administered daily for 14 days either alone (Aβ1-40+AM630 group) or 15 min prior to MDA7 (15 mg/kg i.p.) administration (Aβ1-40+MDA7+AM630 group) to rats injected with β1-40 fibrils. MDA7 group and control group received bilateral intracerebral microinjection of artificial cerebrospinal fluid (130 mM NaCl, 2.6 mM KCl. 4.3 mM MgCl2 and 1.8 mM CaCl2) once and 15 mg/kg MDA7 or saline i.p. daily for 14 days, respectively. Intraperitoneal administration of AM630, MDA7 or saline started on the same day after intracerebral microinjection of Aβ1-40. All drugs were prepared coded. Decoding was performed at the end of all experiments.
(§2) Microinjection of amyloid fibrils into the hippocampal CA1 area. Rats were anesthetized with sodium pentobarbital (45 mg/kg i.p.) and restrained in a stereotaxic apparatus. Aβ1-40 fibrils were formed as described previously. […]
(§3) Immunostaining. […] Three to six sections from each rat were randomly selected and were analyzed using Leica DMLB fluorescence microscope (Leica Microsystems Wetzlar GmbH, Germany) by one investigator, who was blinded to the origin of tissue being examined. Images were quantified using MCID Core software version 7.0 (InterFocus Imaging Ltd, Cambridge, England). […]

IL-1β = IL-1β protein expression in hippocampal CA1 area (immunoblotting); format: in vivo, rat; details: Aβ1-40-injected rats, 15 mg/kg i.p. daily for 14 days
Protocol: Animals were divided into several groups (40-50 rats per group). The Aβ1-40 group received bilateral intracerebral microinjection of Aβ1-40 fibrils once and saline intraperitoneally (i.p.) daily for 14 days. The Aβ1-40+MDA7 group received bilateral intracerebral microinjection of Aβ1-40 fibrils once and 15 mg/kg MDA7 i.p. daily for 14 days. Other cohorts received smaller doses of MDA7 (5 mg/kg or 1.5 mg/kg) i.p. daily for 14 days to determine the dose-response characteristics for MDA7. In other groups, AM630 (a CB2 antagonist) 5 mg/kg i.p. was administered daily for 14 days either alone (Aβ1-40+AM630 group) or 15 min prior to MDA7 (15 mg/kg i.p.) administration (Aβ1-40+MDA7+AM630 group) to rats injected with β1-40 fibrils. […]
Protein extraction and immunoblotting. […] Protein concentrations were determined by using the Bio-Rad (Hercules, Calif.) protein assay kit.
The samples were treated with SDS sample buffer at 95° C. for 5 min, loaded on a 7.5% SDS-polyacrylamide, gel, and blotted to a nitrocellulose membrane. […] The immunoreactivity was detected using enhanced chemiluminescence (ECL Advance Kit; Amersham Biosciences). The intensity of the bands was captured digitally and analyzed quantitatively with ImageJ software. […]

GFAP = GFAP immunoreactivity in hippocampal CA1 area (immunostaining, immunoblotting); format: in vivo, rat
Protocol: as §1, §2, §3

rCB2 = target: T1, rCB2 (Rattus norvegicus, UniProt Q9QZN9); details: cited from earlier work
T1 sequence (Q9QZN9 1-360): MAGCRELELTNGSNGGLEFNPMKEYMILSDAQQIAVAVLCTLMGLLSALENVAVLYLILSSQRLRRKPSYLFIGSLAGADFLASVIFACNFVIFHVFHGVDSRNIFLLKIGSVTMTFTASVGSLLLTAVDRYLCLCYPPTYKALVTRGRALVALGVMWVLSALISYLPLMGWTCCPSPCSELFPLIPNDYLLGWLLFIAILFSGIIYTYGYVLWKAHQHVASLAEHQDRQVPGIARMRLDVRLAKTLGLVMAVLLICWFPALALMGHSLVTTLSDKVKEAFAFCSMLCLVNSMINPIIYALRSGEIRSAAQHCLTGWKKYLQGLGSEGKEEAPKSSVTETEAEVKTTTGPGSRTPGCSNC

[1] = Aβ-injected rats, 14 days i.p. (15 mg/kg), vs saline, hippocampal CA1
[2] = rats without Aβ1-40, compared to control rats

CC1(Cc2ccccc2)COc2cc(C(=O)N3CCCCC3)ccc21 (centres unmarked) [MDA7, 3-benzyl-3-methyl-2,3-dihydrobenzofuran-6-carboxylic acid-piperidine amide]
CD11b immunofluorescence intensity (CD11b; Aβ1-40-injected rats, i.p. for 14 days, vs saline, hippocampal CA1): significantly less | CD11b protein expression (immunoblot) (CD11b; [1]): significantly attenuated | CD11B expression, treatment alone (CD11b; [2]): no significant effect | IL-1β protein expression (immunoblot) (IL-1β): significantly attenuated | GFAP immunofluorescence intensity (GFAP; Aβ1-40-injected rats, 15 mg/kg i.p. for 14 days, vs saline, hippocampal CA1): significantly less | GFAP protein expression (immunoblot) (GFAP; [1]): significantly attenuated | GFAP expression, treatment alone (GFAP; [2]): no significant effect | EC50 (rCB2): 0.067 µM

Source: patent US11160798B2, “Neuroprotective CB2 receptor agonists” (THE CLEVELAND CLINIC FOUNDATION, priority 2012, dated 2021)
